± gives the expanded uncertainty stated by the source.
Details: Liquid, Closed cell (Static) method

## CCCCOCCO [2-butoxyethan-1-ol]
441.3 K
  vapor or sublimation pressure: 93.9 ± 0.8 kPa
441.5 K
  vapor or sublimation pressure: 93.6 ± 0.8 kPa
442.1 K
  vapor or sublimation pressure: 94.1 ± 0.8 kPa

## CCCCOCCOC(C)=O [2-butoxyethyl acetate]
463 K
  vapor or sublimation pressure: 93.7 ± 0.8 kPa
463.3 K
  vapor or sublimation pressure: 93.6 ± 0.8 kPa
464.2 K
  vapor or sublimation pressure: 93.9 ± 0.8 kPa

## CCOCCO [2-ethoxyethan-1-ol]
406.2 K
  vapor or sublimation pressure: 93.3 ± 0.8 kPa
406.9 K
  vapor or sublimation pressure: 93.3 ± 0.8 kPa
407.8 K
  vapor or sublimation pressure: 93.6 ± 0.8 kPa

## CCOCCOC(C)=O [2-ethoxyethyl ethanoate]
427.8 K
  vapor or sublimation pressure: 93.3 ± 0.8 kPa
428.3 K
  vapor or sublimation pressure: 93.7 ± 0.8 kPa
428.6 K
  vapor or sublimation pressure: 93.3 ± 0.8 kPa
